Data published in article PMC7450057, “Enhancing intracellular accumulation and target engagement of PROTACs with reversible covalent chemistry” (Nature Communications, 2020).
Where “and” joins values, the source holds several entries; their conditions need not be identical. Identical values can stand only once. Entries after “also recorded” stand apart in the source; their conditions may differ.

Tests used:
[1] = biological target: truncated Cereblon protein (Homo sapiens, UniProt Q96SW2); assay: CRBN binding assay (fluorescence quenching); conditions: for Fluorescence Intensity: Supplementary Figure 11, replicates
Description: The Kd values of compounds to CRBN were measured based on fluorescence quenching after compounds binding to CRBN. […] All the compounds were dissolved in DMSO (10 mM) as stock solutions. The final drug concentration is 100 nM. […] Fluorescence intensity values for control wells (assay buffer only) were subtracted from each data point prior to analysis. The Kd was calculated using GraphPad Prism with the following equation curve fit. I=I0−If×Kd/P0+Kd+If

MOLM-14 cells = assay: Quantitative multiplexed (TMT) proteomics of compound-treated cells; format: cell-based, Homo sapiens; conditions: 200 nM, 24 h
Description: For proteomic study of the cellular protein profile following BTK degradation, MOLM-14 cells were treated in duplicate with 200 nM of RC-1, RNC-1, IRC-1, or RC-1-Me for 24 h, and then the cells were collected and processed for proteomics analysis (Sanford Burnham Prebys Medical Discovery Institute, La Jolla, California).
For cell lysis and protein digestion, cells were lysed with vigorous shaking (20 Hz for 10 min at room temperature by Retsch MM301 instrument) in 0.5 mL of lysis buffer (8 M urea, 50 mM ammonium bicarbonate (ABC); plus Benzonase 24U/100 ml), and extracted proteins were centrifuged at 14,000 × g for 10 min to remove cellular debris. Supernatant protein concentration was determined using a bicinchoninic acid (BCA) protein assay. Following quantification, the proteins were digested in solution. First, protein disulfide bonds were reduced with 5 mM tris(2-carboxyethyl)phosphine (TCEP) at 30 °C for 60 min, alkylated (carbamidomethylated) with 15 mM iodoacetamide (IAA) in the dark at room temperature for 30 min. Urea was then diluted to 1 M urea using 50 mM ammonium bicarbonate, and proteins were subjected to overnight digestion with mass spec grade Trypsin/Lys-C mix. Following digestion, samples were acidified with formic acid (FA) and subsequently desalted using Waters Sep-Pak C18. Cartridges were sequentially conditioned with 100% acetonitrile (ACN) and 0.1% FA, samples were then loaded, washed with 0.1% FA, and peptides eluted with 60% ACN, 0.1% FA. Finally, the organic solvent was removed in a SpeedVac concentrator prior to LC-MS/MS analysis.
Prior to TMT labeling, sample peptide amount was quantified using a NanoDrop^TM spectrophotometer (ThermoFisher). Samples were labeled according to the table schematic shown below using our TMT protocol. Briefly, a normalized amount of peptides sample was resuspended in 200 mM HEPES pH 8, and then labeled with one of the TMT10-plex reagents for 1 h at room temperature. TMT labels/channels were as follows:
Reactions were quenched with 5% hydroxylamine solution. The 10 samples were then combined, dried down in a SpeedVac system, resuspended in 0.1% FA, and desalted as described above. After desalting, the organic solvent was removed in a SpeedVac concentrator.
Dried samples were reconstituted in 20 mM ammonium formate pH ~10, and fractionated by high pH reverse phase using a Waters Acquity CSH C18 2.1-µm 1 × 150 mm column mounted on an M-Class Ultra Performance Liquid Chromatography (UPLC) system (Waters corp., Milford, MA). […] A total of 36 fractions were collected and pooled in a non-contiguous manner into 18 total fractions: 1 + 19, 2 + 20, 3 + 21, 4 + 22, 5 + 23, 6 + 24, 7 + 25, 8 + 26, 9 + 27, 10 + 28, 11 + 29, 12 + 30, 13 + 31, 14 + 32, 15 + 33, 16 + 34, 17 + 35, and 18 + 36. Pooled fractions were dried to completeness in a SpeedVac concentrator.
Dried fractions were reconstituted with 2% ACN-0.1% FA and analyzed by LC-MS/MS using a nanoACQUITY system (Waters) coupled to an Orbitrap Fusion Lumos mass spectrometer (Thermo Fisher Scientific). […] The mass spectrometer was operated in positive data-dependent acquisition mode. MS1 spectra were measured in the Orbitrap with a resolution of 60,000 (AGC target: 4e5; maximum injection time: 50 ms; mass range: from 350 to 1500 m/z). The instrument was set to run in top speed mode with 3 s cycles for the survey and the MS/MS scans. After a survey scan, tandem MS was performed in the Ion Routing Multipole HCD-Cell on the most abundant precursors by isolating them in the quadrupole (Isolation window: 0.7 m/z; charge state: +2–7; collision energy: 35%). […] The dynamic exclusion was set to 20 s with a 10-ppm mass tolerance around the precursor and its isotopes.
For data analysis, all mass spectra were analyzed with MaxQuant software version 1.5.5.1. MS/MS spectra were searched against the Homo sapiens Uniprot protein sequence database (version January 2018) and GPM cRAP sequences (commonly known protein contaminants). […]

Jeko-1 = assay: IC50 in MCL cell lines (Supplementary Table 2), Jeko-1; conditions: for Cell Viability (%): Jeko-1 cells, replicate wells
NanoLuc-CRBN fusion = biological target: T1, NanoLuc-CRBN fusion (Homo sapiens, UniProt Q96SW2); assay: NanoBRET CRBN in-cell target engagement assay; format: cell-based; conditions: for NanoBRET(%): Figure 3b
T1 construct: host or cells: HEK 293T/17
Summary of the method: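 Live cells expressing NanoLuc-CRBN with tracer and compound were incubated 2 h, then given Nano-Glo substrate plus extracellular NanoLuc inhibitor for 3 min at room temperature.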

Chain of truncated Cereblon protein (Q96SW2 318-426): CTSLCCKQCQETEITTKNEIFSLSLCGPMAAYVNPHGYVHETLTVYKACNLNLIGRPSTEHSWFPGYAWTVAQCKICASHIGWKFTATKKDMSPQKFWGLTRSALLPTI
T1 sequence (Q96SW2 whole entry, the tested form may be a part): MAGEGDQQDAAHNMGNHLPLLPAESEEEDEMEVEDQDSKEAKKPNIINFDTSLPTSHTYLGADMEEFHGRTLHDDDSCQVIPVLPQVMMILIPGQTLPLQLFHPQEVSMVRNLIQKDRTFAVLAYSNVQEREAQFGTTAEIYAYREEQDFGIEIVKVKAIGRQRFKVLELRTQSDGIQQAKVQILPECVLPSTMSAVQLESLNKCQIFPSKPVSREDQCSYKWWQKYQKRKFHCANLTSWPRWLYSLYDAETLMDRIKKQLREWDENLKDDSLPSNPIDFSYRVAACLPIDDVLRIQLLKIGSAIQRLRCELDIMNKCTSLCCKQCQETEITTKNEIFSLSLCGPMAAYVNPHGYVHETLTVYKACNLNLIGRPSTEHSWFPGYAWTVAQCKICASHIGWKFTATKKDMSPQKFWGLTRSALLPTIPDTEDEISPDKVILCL
T1 sequence (Q16531 whole entry partner, the tested form may be a part): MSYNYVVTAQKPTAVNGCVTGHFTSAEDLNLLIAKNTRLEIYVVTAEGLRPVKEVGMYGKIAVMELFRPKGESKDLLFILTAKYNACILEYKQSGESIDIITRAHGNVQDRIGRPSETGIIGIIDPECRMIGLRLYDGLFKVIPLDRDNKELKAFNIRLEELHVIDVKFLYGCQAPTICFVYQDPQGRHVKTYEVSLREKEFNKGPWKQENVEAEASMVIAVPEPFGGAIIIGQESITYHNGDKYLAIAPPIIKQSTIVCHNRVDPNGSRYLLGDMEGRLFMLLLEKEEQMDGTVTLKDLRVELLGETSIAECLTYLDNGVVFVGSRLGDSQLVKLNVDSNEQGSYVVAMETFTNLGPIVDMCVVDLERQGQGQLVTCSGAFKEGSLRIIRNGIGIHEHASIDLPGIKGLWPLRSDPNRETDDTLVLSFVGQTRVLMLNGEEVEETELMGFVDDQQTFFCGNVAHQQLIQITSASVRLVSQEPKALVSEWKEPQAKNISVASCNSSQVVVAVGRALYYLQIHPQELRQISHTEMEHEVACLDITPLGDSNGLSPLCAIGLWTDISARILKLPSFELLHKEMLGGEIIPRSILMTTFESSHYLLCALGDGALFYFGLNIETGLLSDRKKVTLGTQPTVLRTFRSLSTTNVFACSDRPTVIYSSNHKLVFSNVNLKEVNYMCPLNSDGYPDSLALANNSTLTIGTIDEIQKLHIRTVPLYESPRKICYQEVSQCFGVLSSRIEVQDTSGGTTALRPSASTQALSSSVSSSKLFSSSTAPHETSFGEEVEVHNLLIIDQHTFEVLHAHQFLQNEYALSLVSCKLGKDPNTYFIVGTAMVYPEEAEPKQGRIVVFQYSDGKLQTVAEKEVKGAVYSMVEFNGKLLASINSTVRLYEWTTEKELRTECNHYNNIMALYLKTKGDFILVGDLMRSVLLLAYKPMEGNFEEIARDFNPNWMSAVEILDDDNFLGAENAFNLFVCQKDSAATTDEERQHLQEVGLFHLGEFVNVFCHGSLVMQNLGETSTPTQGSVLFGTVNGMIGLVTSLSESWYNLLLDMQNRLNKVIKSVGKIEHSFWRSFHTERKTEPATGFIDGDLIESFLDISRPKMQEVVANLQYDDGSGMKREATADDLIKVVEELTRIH

CN(CCCNC(=O)CNc1cccc2c1C(=O)N(C1CCC(=O)NC1=O)C2=O)C(C)(C)C=C(C#N)C(=O)N1CCC[C@@H](n2nc(-c3ccc(Oc4ccccc4)cc3)c3c(N)ncnc32)C1 (stereo partly shown) [RC-1]
Fluorescence Intensity ([1]; CRBN 0 μM): 4127.8 and 4128.8 and 3844.8 | Fluorescence Intensity ([1]; CRBN 0.734375 μM): 3220.8 and 3187.8 and 3673.8 | Fluorescence Intensity ([1]; CRBN 1.46875 μM): 3204.8 and 3148.8 and 2908.8 | Fluorescence Intensity ([1]; CRBN 2.9375 μM): 2864.8 and 2662.8 and 2860.8 | Fluorescence Intensity ([1]; CRBN 5.875 μM): 2528.8 and 2598.8 and 2686.8 | Fluorescence Intensity ([1]; CRBN 11.75 μM): 1735.8 and 1776.8 and 2083.8 | Fluorescence Intensity ([1]; CRBN 23.5 μM): 1563.8 and 1722.8 and 1455.8 | Kd ([1]; truncated Cereblon protein, fluorescence quenching, triplicates): 4200 nM | degradation of IMiD-dependent substrates IKZF1, ZFP91, ZNF692 (MOLM-14 cells): specifically degraded | kinases degraded (proteomics) (MOLM-14 cells): only two kinases (BTK and CSK) can be degraded; also recorded: only degrades BTK and CSK | IC50 (Jeko-1; Jeko-1, triplicates): 200 nM | Cell Viability (%) (Jeko-1; 1.25E-06 M): 8.1% and 9.79% and 4.911% | Cell Viability (%) (Jeko-1; 1.56E-07 M): 59.0193% and 84.765% and 42.1211% | Cell Viability (%) (Jeko-1; 2.50E-06 M): 5.234% and 3.584% and 4.277% | Cell Viability (%) (Jeko-1; 3.13E-07 M): 35.9177% and 48.9386% and 32.3116% | Cell Viability (%) (Jeko-1; 5.00E-06 M): 6.285% and 4.711% and 5.303% | Cell Viability (%) (Jeko-1; 6.25E-07 M): 26.3007% and 22.6601% and 16.326% | Cell Viability (%) (Jeko-1; 7.81E-08 M): 58.1018% and 72.8615% and 48.2775% | NanoBRET(%) (NanoLuc-CRBN fusion; 1.00E-05 M, triplicates): 21.6334% and 26.3618% | NanoBRET(%) (NanoLuc-CRBN fusion; 1.60E-08 M, triplicates): 89.0253% and 93.1823% and 91.5749% | NanoBRET(%) (NanoLuc-CRBN fusion; 3.20E-09 M, triplicates): 81.4353% and 98.6889% | NanoBRET(%) (NanoLuc-CRBN fusion; 4.00E-07 M, triplicates): 23.5104% and 43.7578% and 36.9762% | NanoBRET(%) (NanoLuc-CRBN fusion; 8.00E-08 M, triplicates): 72.3946% and 83.8988% and 65.1002% | IC50 (NanoLuc-CRBN fusion; HEK-293 cells, CRBN tracer 0.5 µM, triplicates, read-out: CRBN target engagement IC50,TE): 250 nM | K′P,D (relative intracellular accumulation coefficient) (NanoLuc-CRBN fusion; Kd (CRBN)/IC50,TE (CRBN)): 16.8
